Measurements as given in ChEMBL document CHEMBL1141701, “N-alkyl-5H-pyrido[4,3-b]indol-1-amines and derivatives as novel urotensin-II receptor antagonists” (Bioorg Med Chem Lett, 2008).
≈ marks a conversion by molar mass, not a printed value. Each block holds one compound with its values, some of them ahead of it.

Columns and labels:
Urotensin-2 receptor [1] = target: T1, Urotensin-2 receptor (Homo sapiens, UniProt Q9UKP6); assay: Displacement of [125I]human urotensin 2 from human recombinant urotensin 2 receptor expressed in HEK293 cells; assay type: cell-based
T1 sequence (Q9UKP6 whole entry): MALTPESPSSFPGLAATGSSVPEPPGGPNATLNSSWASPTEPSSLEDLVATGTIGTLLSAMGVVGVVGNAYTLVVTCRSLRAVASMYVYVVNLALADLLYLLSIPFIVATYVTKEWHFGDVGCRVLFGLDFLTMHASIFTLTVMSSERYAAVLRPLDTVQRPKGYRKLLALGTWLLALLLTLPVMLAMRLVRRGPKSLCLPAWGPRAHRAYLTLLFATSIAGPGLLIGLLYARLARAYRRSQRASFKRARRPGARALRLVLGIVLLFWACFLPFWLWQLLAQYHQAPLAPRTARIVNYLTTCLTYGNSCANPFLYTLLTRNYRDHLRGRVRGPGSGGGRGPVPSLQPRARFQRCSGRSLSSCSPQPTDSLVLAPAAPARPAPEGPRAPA

Urotensin II receptor = target: T2, Urotensin II receptor (Felis catus, UniProt Q533H1); assay: Displacement of [125I]human urotensin 2 from cat urotensin 2 receptor expressed in HEK293 cells; assay type: cell-based
T2 sequence (Q533H1 whole entry): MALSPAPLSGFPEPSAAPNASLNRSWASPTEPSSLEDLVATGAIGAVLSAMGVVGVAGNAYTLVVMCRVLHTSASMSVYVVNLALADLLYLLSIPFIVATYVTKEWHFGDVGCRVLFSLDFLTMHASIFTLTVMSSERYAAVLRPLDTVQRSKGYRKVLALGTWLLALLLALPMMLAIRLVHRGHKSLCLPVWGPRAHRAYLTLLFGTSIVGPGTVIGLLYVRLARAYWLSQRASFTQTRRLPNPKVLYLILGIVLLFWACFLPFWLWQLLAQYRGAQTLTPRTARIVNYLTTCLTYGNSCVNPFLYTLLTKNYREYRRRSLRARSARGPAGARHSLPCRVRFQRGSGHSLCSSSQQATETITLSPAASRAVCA

Urotensin-2 receptor [2] = target: T1, Urotensin-2 receptor; assay: Antagonist activity at human urotensin 2 receptor by FLIPR assay; assay type: functional; conditions: read-out: pA2 (converted)
[3] = Selectivity for human urotensin 2 receptor over 5HT1D receptor
[4] = Selectivity for human urotensin 2 receptor over dopamine D3 receptor
[5] = Selectivity for human urotensin 2 receptor over dopamine D2 receptor
Urotensin-2 receptor [6] = target: T1, Urotensin-2 receptor; assay: Antagonist activity at human recombinant urotensin 2 receptor expressed in HEK293 cells assessed as inhibition of […] calcium mobilization by FLIPR assay; assay type: functional, cell-based
[7] = Selectivity for human urotensin 2 receptor over histamine H1 receptor
[8] = Selectivity for human urotensin 2 receptor over adenosine A1 receptor
[9] = Selectivity for human urotensin 2 receptor over muscarinic M1 receptor
[10] = Selectivity for human urotensin 2 receptor over adrenergic Alpha-1B receptor
[11] = Blood clearance in rat at 0.49 mg/kg, iv or 0.97 mg/kg, po; assay type: ADME, organism-based
[12] = Selectivity for human urotensin 2 receptor over muscarinic M5 receptor
[13] = target: Voltage-gated inwardly rectifying potassium channel KCNH2 (Homo sapiens, UniProt Q12809); assay: Inhibition of human ERG
Chain of Voltage-gated inwardly rectifying potassium channel KCNH2 (Q12809 whole entry): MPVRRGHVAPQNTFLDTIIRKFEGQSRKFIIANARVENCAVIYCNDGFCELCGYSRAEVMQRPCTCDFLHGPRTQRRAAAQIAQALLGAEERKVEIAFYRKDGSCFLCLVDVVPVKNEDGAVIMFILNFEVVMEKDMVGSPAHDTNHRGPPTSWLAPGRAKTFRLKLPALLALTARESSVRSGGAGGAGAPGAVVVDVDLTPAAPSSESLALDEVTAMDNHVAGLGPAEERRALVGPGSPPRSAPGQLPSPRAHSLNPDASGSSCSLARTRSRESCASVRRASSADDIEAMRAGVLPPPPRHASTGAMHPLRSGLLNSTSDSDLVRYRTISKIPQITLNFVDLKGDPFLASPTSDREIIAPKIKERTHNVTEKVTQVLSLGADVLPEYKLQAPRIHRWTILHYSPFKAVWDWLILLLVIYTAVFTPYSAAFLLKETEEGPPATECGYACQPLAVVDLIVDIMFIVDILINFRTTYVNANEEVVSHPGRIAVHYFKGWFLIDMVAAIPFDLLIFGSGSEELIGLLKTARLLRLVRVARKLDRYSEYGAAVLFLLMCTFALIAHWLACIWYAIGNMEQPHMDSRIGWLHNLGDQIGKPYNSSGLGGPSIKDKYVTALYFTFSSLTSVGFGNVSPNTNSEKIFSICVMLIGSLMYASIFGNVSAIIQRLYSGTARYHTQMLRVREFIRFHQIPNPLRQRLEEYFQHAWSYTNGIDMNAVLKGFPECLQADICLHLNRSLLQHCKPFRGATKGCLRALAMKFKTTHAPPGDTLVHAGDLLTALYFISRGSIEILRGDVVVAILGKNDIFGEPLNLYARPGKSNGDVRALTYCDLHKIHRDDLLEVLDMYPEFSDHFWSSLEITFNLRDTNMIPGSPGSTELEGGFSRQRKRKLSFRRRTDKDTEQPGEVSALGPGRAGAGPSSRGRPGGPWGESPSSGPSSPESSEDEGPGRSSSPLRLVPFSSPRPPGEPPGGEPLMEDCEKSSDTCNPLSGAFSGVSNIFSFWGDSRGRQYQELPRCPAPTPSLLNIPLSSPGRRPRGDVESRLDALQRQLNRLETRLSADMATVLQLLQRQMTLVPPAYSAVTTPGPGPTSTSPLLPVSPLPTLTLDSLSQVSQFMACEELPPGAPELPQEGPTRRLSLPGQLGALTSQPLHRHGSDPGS

[14] = Selectivity for human urotensin 2 receptor over muscarinic M4 receptor
[15] = Selectivity for human urotensin 2 receptor over 5HT3 receptor
[16] = Aqueous solubility in phosphate buffer by HPLC; assay type: physicochemical
[17] = Oral bioavailability in rat at 0.97 mg/kg; assay type: ADME, organism-based; conditions: in vivo
Homo sapiens = species: Homo sapiens; assay: Selectivity for human urotensin 2 receptor over human ERG
[18] = Selectivity for human urotensin 2 receptor over 5HT2A receptor
[19] = Selectivity for human urotensin 2 receptor over CXCR2
[20] = Permeability across artificial phospholipid membrane by HPLC; assay type: ADME; conditions: not told; read-out: permeability
[21] = Selectivity for human urotensin 2 receptor over 5HT2C receptor
[22] = Selectivity for human urotensin 2 receptor over 5HT1B receptor
[23] = Selectivity for human urotensin 2 receptor over adrenergic alpha1A receptor
Cytochrome P450 2D6 = Cytochrome P450 2D6 (Homo sapiens, UniProt P10635); assay: Inhibition of CYP2D6; assay type: ADME
Chain of Cytochrome P450 2D6 (P10635 whole entry): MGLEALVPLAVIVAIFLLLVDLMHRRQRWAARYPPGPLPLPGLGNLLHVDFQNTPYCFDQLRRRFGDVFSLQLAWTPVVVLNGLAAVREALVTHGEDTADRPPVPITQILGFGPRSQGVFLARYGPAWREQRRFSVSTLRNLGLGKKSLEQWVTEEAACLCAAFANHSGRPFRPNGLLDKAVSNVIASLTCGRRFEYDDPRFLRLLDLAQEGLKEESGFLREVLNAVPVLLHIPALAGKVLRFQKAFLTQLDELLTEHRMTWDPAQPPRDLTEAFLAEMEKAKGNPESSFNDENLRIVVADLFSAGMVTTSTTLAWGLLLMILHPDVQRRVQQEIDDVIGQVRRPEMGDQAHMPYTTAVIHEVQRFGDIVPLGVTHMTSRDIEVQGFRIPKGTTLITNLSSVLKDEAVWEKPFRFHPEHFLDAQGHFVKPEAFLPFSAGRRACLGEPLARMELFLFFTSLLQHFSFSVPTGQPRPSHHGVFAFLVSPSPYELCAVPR

[24] = Selectivity for human urotensin 2 receptor over muscarinic M3 receptor
[25] = Selectivity for human urotensin 2 receptor over 5HT7 receptor
[26] = Selectivity for human urotensin 2 receptor over 5HT1A receptor
[27] = Selectivity for human urotensin 2 receptor over adrenergic beta2 receptor
[28] = Selectivity for human urotensin 2 receptor over 5HT6 receptor
[29] = Selectivity for human urotensin 2 receptor over 5HT4A receptor
[30] = Selectivity for human urotensin 2 receptor over adenosine A2a receptor
Cytochrome P450 3A4 = Cytochrome P450 3A4 (Homo sapiens, UniProt P08684); assay: Inhibition of CYP3A4; assay type: ADME
Chain of Cytochrome P450 3A4 (P08684 whole entry): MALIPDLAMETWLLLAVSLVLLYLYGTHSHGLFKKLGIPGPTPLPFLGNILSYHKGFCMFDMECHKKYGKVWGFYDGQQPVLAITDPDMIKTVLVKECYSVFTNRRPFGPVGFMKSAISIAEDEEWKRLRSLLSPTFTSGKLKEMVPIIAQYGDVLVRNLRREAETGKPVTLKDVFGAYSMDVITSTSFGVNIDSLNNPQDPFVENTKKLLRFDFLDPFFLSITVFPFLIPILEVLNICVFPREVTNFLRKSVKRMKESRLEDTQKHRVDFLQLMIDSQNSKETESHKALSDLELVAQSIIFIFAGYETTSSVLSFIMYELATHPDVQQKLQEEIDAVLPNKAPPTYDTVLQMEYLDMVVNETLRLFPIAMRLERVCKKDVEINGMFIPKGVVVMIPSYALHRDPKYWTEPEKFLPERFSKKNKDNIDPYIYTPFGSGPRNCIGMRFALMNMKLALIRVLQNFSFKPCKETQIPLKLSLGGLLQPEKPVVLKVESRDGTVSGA

[31] = Selectivity for human urotensin 2 receptor over adenosine A2b receptor
[32] = Selectivity for human urotensin 2 receptor over muscarinic M2 receptor
[33] = Half life in rat at 0.49 mg/kg, iv or 0.97 mg/kg, po; assay type: ADME, organism-based; conditions: in vivo
[34] = Selectivity for human urotensin 2 receptor over histamine H3 receptor

Compound: COCCNc1ccnc2[nH]c3ccccc3c12
Ki (Urotensin-2 receptor [1]): 316 nM

Compound: CCCCCNc1nccc2[nH]c3ccccc3c12
Ki (Urotensin-2 receptor [1]): 3.98 nM
Ki (Urotensin II receptor): 398 nM

Compound: c1ccc2c(c1)[nH]c1ccnc(NCCN3CCOCC3)c12
Ki (Urotensin-2 receptor [1]): > 7940 nM

Compound: CCCCNc1ccnc2[nH]c3ccc(Cl)cc3c12
Ki (Urotensin-2 receptor [1]): 50.1 nM

Compound: CC(=O)NCCNc1nccc2[nH]c3ccccc3c12
Ki (Urotensin-2 receptor [1]): > 7940 nM

Compound: CC(C)CCNc1nccc2[nH]c3ccccc3c12
Ki (Urotensin-2 receptor [1]): 12.6 nM
Ki (Urotensin II receptor): 1580 nM

Compound: CCCCNc1ccnc2[nH]c3c(OC)cccc3c12
Ki (Urotensin-2 receptor [1]): 31.6 nM

Compound: CCCCNc1nccc2c1c1ccccc1n2Cc1ccccc1
Ki (Urotensin-2 receptor [1]): 3980 nM

Compound: CN(C)CCNc1nccc2[nH]c3ccccc3c12
Ki (Urotensin-2 receptor [1]): > 7940 nM

Compound: c1ccc(Nc2nccc3[nH]c4ccccc4c23)cc1
Ki (Urotensin-2 receptor [1]): > 7940 nM

Compound: c1ccc(CCNc2nccc3[nH]c4ccccc4c23)cc1
Ki (Urotensin-2 receptor [1]): 100 nM

Compound: CCCC(C)Nc1nccc2[nH]c3ccccc3c12 (centres undefined)
Ki (Urotensin-2 receptor [1]): 794 nM

Compound: COCCN(C)c1nccc2[nH]c3ccccc3c12
Ki (Urotensin-2 receptor [1]): > 7940 nM

Compound: CCCCNc1nccc2c1c1ccccc1n2C
Ki (Urotensin-2 receptor [1]): 50.1 nM
Ki (Urotensin II receptor): 1000 nM

Compound: CCCCCCNc1nccc2[nH]c3ccccc3c12
Ki (Urotensin-2 receptor [1]): 6.31 nM
Ki (Urotensin II receptor): 200 nM

Compound: c1ccc(CNc2nccc3[nH]c4ccccc4c23)cc1
Ki (Urotensin-2 receptor [1]): 12.6 nM
Ki (Urotensin II receptor): 1000 nM
Kb (Urotensin-2 receptor [2]): 20 nM

Compound: CCCCNc1nccc2c1c1ccccc1n2C(C)C
Ki (Urotensin-2 receptor [1]): 63.1 nM

Compound: c1csc(CNc2nccc3[nH]c4ccccc4c23)c1
Ki (Urotensin-2 receptor [1]): 25.1 nM
Ki (Urotensin II receptor): 3160 nM
Kb (Urotensin-2 receptor [2]): 158 nM

Compound: NC(=O)CCNc1nccc2[nH]c3ccccc3c12
Ki (Urotensin-2 receptor [1]): > 7940 nM

Compound: CCCCN(CCCC)c1nccc2[nH]c3ccccc3c12
Ki (Urotensin-2 receptor [1]): 794 nM

Compound: CCCCNc1ccnc2[nH]c3ccc(C)cc3c12
Ki (Urotensin-2 receptor [1]): 63.1 nM

Compound: CCC(C)CNc1nccc2[nH]c3ccccc3c12 (centres undefined)
Ki (Urotensin-2 receptor [1]): 10 nM
Ki (Urotensin II receptor): 1260 nM
Kb (Urotensin-2 receptor [2]): 100 nM

Compound: CCCCNc1ccnc2[nH]c3ccccc3c12
Ki (Urotensin-2 receptor [1]): 79.4 nM

The next lines start with results.

Ki (Urotensin-2 receptor [1]): 1580 nM
Compound: CCNc1nccc2[nH]c3ccccc3c12

Ki (Urotensin-2 receptor [1]): 6.31 nM
Ki (Urotensin II receptor): 2510 nM
Kb (Urotensin-2 receptor [2]): 126 nM
Compound: c1ccc2c(c1)[nH]c1ccnc(NCC3CC3)c12

Ki (Urotensin-2 receptor [1]): 10 nM
Compound: c1ccc2c(c1)[nH]c1ccnc(NCC3CCCCC3)c12

Ki (Urotensin-2 receptor [1]): 12.6 nM
Compound: CCOCCNc1nccc2[nH]c3ccccc3c12

Ki (Urotensin-2 receptor [1]): 794 nM
Compound: c1ccc2c(c1)[nH]c1nccc(NCC3CCCCC3)c12

Ki (Urotensin-2 receptor [1]): 25.1 nM
Compound: CCCNc1nccc2[nH]c3ccccc3c12

Ki (Urotensin-2 receptor [1]): > 7940 nM
Compound: c1ccc2c(c1)[nH]c1ccnc(NC3CCCCC3)c12

Ki (Urotensin-2 receptor [1]): 20 nM
Compound: COCCNc1nccc2[nH]c3ccccc3c12

Ki (Urotensin-2 receptor [1]): 100 nM
Compound: c1ccc2c(c1)[nH]c1nccc(NCC3CC3)c12

Selectivity ratio [3]: 100
Selectivity ratio [4]: 100
Selectivity ratio [5]: 100
IC50 (Urotensin-2 receptor [6]): 501 nM
Selectivity ratio [7]: 100
Ki (Urotensin-2 receptor [1]): 3.98 nM
Selectivity ratio [8]: 100
Selectivity ratio [9]: 100
Selectivity ratio [10]: 100
clearance [11]: 110 mL/min/kg
Selectivity ratio [12]: 100
Selectivity ratio [14]: 100
Selectivity ratio [15]: 100
solubility [16]: 195 µM (≈ 46.7 µg/mL)
bioavailability [17]: 11%
Selectivity ratio (Homo sapiens): 400
Selectivity ratio [18]: 100
Selectivity ratio [19]: 100
Papp [20]: 47 ×10⁻⁶ cm/s
Selectivity ratio [21]: 100
Selectivity ratio [22]: 100
Selectivity ratio [23]: 100
IC50 (Cytochrome P450 2D6): 7.94 nM
Ki (Urotensin II receptor): 631 nM
Selectivity ratio [24]: 100
Selectivity ratio [25]: 100
Selectivity ratio [26]: 100
Selectivity ratio [27]: 100
Selectivity ratio [28]: 100
Kb (Urotensin-2 receptor [2]): 100 nM
Selectivity ratio [29]: 100
Selectivity ratio [30]: 100
IC50 (Cytochrome P450 3A4): 100 nM
Selectivity ratio [31]: 100
Selectivity ratio [32]: 100
half-life [33]: 1.3 h
Selectivity ratio [34]: 100
Compound: CCCCNc1nccc2[nH]c3ccccc3c12
IC50 [13]: 1580 nM

Ki (Urotensin-2 receptor [1]): 2510 nM
Compound: c1ccc2c(c1)[nH]c1ccnc(NC3CC3)c12

Ki (Urotensin-2 receptor [1]): 79.4 nM
Compound: c1ccc2c(c1)[nH]c1ccnc(NCC3CCCO3)c12 (centres undefined)
